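48-hour exposure; five concentrations; linearly interpolated endpoints. GI50 marks 50% less growth. At the TGI there is no net growth.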
Columns and labels:
Assay in all cases: NCI-60 cell line screen, 48 h
[1] = tested on: CCRF-CEM leukemia
[2] = tested on: KM12 colon
[3] = tested on: SK-MEL-2 melanoma
[4] = tested on: UO-31 renal
[5] = tested on: NCI-H23 lung
[6] = tested on: A549 NSCLC
[7] = tested on: HT29 colon
[8] = tested on: RPMI-8226 leukemia
[9] = tested on: SK-MEL-28 melanoma
[10] = tested on: SR leukemia

Row | Structure (SMILES) | GI50 [1] | TGI [1] | GI50 [2] | TGI [2] | GI50 [3] | TGI [3] | GI50 [4] | TGI [4] | GI50 [5] | TGI [5] | GI50 [6] | TGI [6] | GI50 [7] | TGI [7] | GI50 [8] | TGI [8] | GI50 [9] | TGI [9] | TGI [10] | GI50 [10]
1 | CCOC(=O)c1cc2c(cc1Cl)SC(=Nc1ccccc1)N(S(=O)(=O)c1ccc(Cl)cc1)S2(=O)=O | 2.57 µM | 7.4 µM | 15.1 µM | 30.4 µM | 12.1 µM | 30.4 µM | 15.9 µM | 33.3 µM | 13.5 µM | 29.8 µM | 26.1 µM | 68 µM | 19.4 µM | > 100 µM | 4.26 µM | 19.4 µM | 21.6 µM | 74.6 µM | – | –
2 | CN(C)CCNC(=O)c1cccc2cc3c(Cl)cccc3nc12 | – | – | – | 7.28 µM | – | 3.5 µM | – | > 28.7 µM | – | 3.23 µM | – | 9.35 µM | – | 6.94 µM | – | 14.2 µM | – | 5.4 µM | 14.8 µM | –
3 | NCCCC[C@@H]1NC(=O)[C@H](CC(=O)O)NC(=O)CNC(=O)[C@H](CCCN=C(N)N)NC(=O)[C@@H](N)CSSC[C@@H](C(=O)O)NC(=O)[C@H](CC(=O)O)NC(=O)[C@@H]2CCCN2C(=O)CNC1=O | > 100 µM | > 100 µM | > 100 µM | > 100 µM | – | – | – | – | > 100 µM | > 100 µM | > 100 µM | > 100 µM | > 100 µM | > 100 µM | > 100 µM | > 100 µM | > 100 µM | > 100 µM | > 100 µM | > 100 µM
4 | Nc1nc([Se])c2ncn(C3OC(CO)C(O)C3O)c2n1 (stereo not drawn) | 2.28 µM | > 100 µM | 10.2 µM | 54.9 µM | 59.8 µM | > 100 µM | 24.3 µM | > 100 µM | 5.05 µM | > 100 µM | 25.1 µM | > 100 µM | 4.29 µM | 82.9 µM | – | – | > 100 µM | > 100 µM | > 100 µM | 2.88 µM
5 | N/C(=N\N=C\c1ccc(C(F)(F)F)cc1)NO | – | 95.5 µM | – | > 100 µM | – | 92 µM | – | – | – | 52.9 µM | – | 59.2 µM | – | > 100 µM | – | – | – | > 100 µM | > 100 µM | –
6 | COc1ccc(CN2c3ccccc3Sc3ccccc32)c(C(F)(F)F)c1 | 0.454 µM | 26.5 µM | – | – | 1.18 µM | 14.7 µM | 3.98 µM | > 100 µM | 1.03 µM | 93.4 µM | 0.807 µM | 68.5 µM | 0.681 µM | 10.9 µM | 3 µM | 31.5 µM | – | – | > 100 µM | 0.483 µM
7 | CCOC(=O)Oc1cc2c(c(OC)c1OC)-c1ccc(OC)c(=O)cc1C(NC(C)=O)CC2 (stereo not drawn) | – | > 21.5 µM | – | 1.68 µM | – | > 17.1 µM | – | > 100 µM | – | 8.82 µM | – | > 100 µM | – | 13.2 µM | – | 70.6 µM | – | > 100 µM | – | –
8 | O=C([CH-]C(=O)c1ccccc1)c1ccccc1.[CH-]1CCCCC1.[CH-]1CCCCC1.[CH-]1CCCCC1.[Sn+4] | – | – | 10.8 µM | 24.2 µM | 3.39 µM | 11.9 µM | 12.5 µM | 25 µM | 6.06 µM | 20.3 µM | 15.5 µM | 38.6 µM | 14 µM | 38.5 µM | 2.32 µM | 5.22 µM | – | – | – | –

— PubChem BioAssay (NCI)
